The values that follow come from US20040097502A1, “Pyrazoles as tgf inhibitors” (priority 2001, published 2004).

Series [1] deals with TGF-β signaling (PAI-1 promoter linked to firefly luciferase in HepG2 cells). The series can be described thus: Assay 1: PAI-1 promoter luciferase reporter assay in HepG2 cells after exposure to TGF-β. As to conditions: for IC50: Homo sapiens, HepG2 cells, PAI-1 promoter-luciferase, 1 ng/mL rhTGFβ-1, read-out: IC50 value in Assay 1 (inhibition of TGF-β induced firefly luciferase activity). The series is classed as cell-based. How it is done:
The assay was performed in HepG2 cells stably transfected with the PAI-1 promoter (known to be a strong TGF-β responsive promoter) linked to a luciferase (firefly) reporter gene. The compounds were selected on their ability to inhibit luciferase activity after exposure to TGF-β. In addition cells were transfected with a second luciferase (Renilla) gene which was not driven by a TGF-β responsive promoter and was used as a toxicity control.
(96 well-)microplates are seeded, using a multidrop apparatus, with the stably transfected cell line at a concentration of 35000 cells per well in 200 μl of serum-containing medium. These plates are placed in a cell incubator.
18 to 24 hours later (Day 2), cell-incubation procedure is launched. Cells are incubated with TGF-β and a candidate compound at concentrations in the range 50 nM to 10 μM (final concentration of DMSO 1%). The final concentration of TGF-β (rhTGFβ-1) used in the test is 1 ng/mL. Cells are incubated with a candidate compound 15-30 mins prior to the addition of TGF-β. The final volume of the test reaction is 150 μl. Each well contains only one candidate compound and its effect on the PAI-1 promoter is monitored.
Columns 11 and 12 are employed as controls. Column 11 contains 8 wells in which the cells are incubated in the presence of TGF-β, without a candidate compound. Column 11 is used to determine the ‘reference TGF-β induced firefly luciferase value’ against which values measured in the test wells (to quantify inhibitory activity) may be compared. In wells A12 to D12, cells are grown in medium without TGF-β. The firefly luciferase values obtained from these positions are representive of the ‘basal firefly luciferase activity’. In wells E12 to H12, cells are incubated in the presence of TGF-β and 500 μM CPO (Cyclopentenone, Sigma), a cell toxic compound.
12 to 18 hours later (day 3), the luciferase quantification procedure is launched. The following reactions are performed using reagents obtained from a Dual Luciferase Assay Kit (Promega). Cells are washed and lysed with the addition of 10 μl of passive lysis buffer (Promega). Following agitation (15 to 30 mins), luciferase activities of the plates are read in a dual-injector luminometer (BMG lumistar). For this purpose, 50 μl of luciferase assay reagent and 50 μl of ‘Stop & Glo’ buffer are injected sequentially to quantify the activities of both luciferases. The mean Luciferase activity value obtained in wells A11 to H11 (Column 11, TGF-β only) is considered to represent 100% and values obtained in wells A12 to D12 (cells in medium alone) give a basal level (0%). For each of the compounds tested, a concentration response curve is constructed from which an IC50 value can be determined graphically.
(A reporter such as luciferase makes a cellular process visible.)

As for `Clc1ccc(Nc2cc(-c3c[nH]nc3-c3ccccn3)ccn2)cc1` [Example 1], the melting point (as a rule, the temperature, or range, at which the solid turns liquid) came to 216 °C. Further, the IC50 – broadly, the concentration that inhibits the measured activity by half – in series [1] is not above 5 µM.
Take `c1ccc(-c2n[nH]cc2-c2ccnc(Nc3cccc(OCCN4CCCC4)c3)c2)nc1` [Example 9]: the melting point was found to be 141 °C. Besides, in series [1], the IC50 was not above 5 µM.
Consider `Cc1ccc(Nc2cc(-c3c[nH]nc3-c3ccccn3)ccn2)cc1` [Example 18, [4-(3-Pyridin-2-yl-1H-pyrazol-4-yl)-pyridin-2-yl]-p-tolyl-amine], for which the melting point turned out to be 221 °C. Besides, the IC50 in series [1] is not above 5 µM.
The compound `Clc1cccc(Nc2cc(-c3c[nH]nc3-c3ccccn3)ccn2)c1` [Example 10] returned a melting point of 205 °C. In series [1], the IC50 is not above 5 µM.
For the compound `Cc1cc(Nc2cc(-c3c[nH]nc3-c3ccccn3)ccn2)ccc1Cl` [Example 14, (4-Chloro-3-methyl-phenyl)-[4-(3-pyridin-2-yl-1H-pyrazol-4-yl)-pyridin-2-yl]-amine], the melting point came to 212 °C. Moreover, in series [1], the IC50 was not above 5 µM.
As for `Oc1ccc(Nc2cc(-c3c[nH]nc3-c3ccccn3)ccn2)cc1` [Example 16, 4-[4-(3-Pyridin-2-yl-1H-pyrazol-4-yl)-pyridin-2-ylamino]-phenol], the melting point came out at 268 °C. In addition, the IC50 in series [1] is not above 5 µM.
With `c1ccc(-c2n[nH]cc2-c2ccnc(NCc3ccco3)c2)nc1` [Example 4], the melting point was found to be 200 °C. Besides, in series [1], the IC50 is not above 5 µM.
`CC(C)Oc1cccc(Nc2cc(-c3c[nH]nc3-c3ccccn3)ccn2)c1` [Example 22, (3-Isopropoxy-phenyl)-[4-(3-pyridin-2-yl-1H-pyrazol-4-yl)-pyridin-2-yl]-amine] gave a melting point of 218 °C. For the same compound, the IC50 in series [1] is not above 5 µM.
Compound `COc1ccc(Nc2cc(-c3c[nH]nc3-c3ccccn3)ccn2)cc1` [Example 17, (4-Methoxy-phenyl)-[4-(3-pyridin-2-yl-1H-pyrazol-4-yl)-pyridin-2-yl]-amine] yielded a melting point of 219 °C. For the same compound, the IC50 in series [1] is not above 5 µM.
Compound `N#Cc1cc(Nc2cc(-c3c[nH]nc3-c3ccccn3)ccn2)ccc1Cl` [Example 15, 2-Chloro-5-[4-(3-pyridin-2-yl-1H-pyrazol-4-yl)-pyridin-2-ylamino]-benzonitrile] yielded a melting point of 250 °C. For the same compound, the IC50 in series [1] was not above 5 µM.
`Fc1ccc(Nc2cc(-c3c[nH]nc3-c3ccccn3)ccn2)cc1` [Example 3] registered a melting point of 200 °C. Moreover, the IC50 in series [1] is not above 5 µM.
On to `O=C1C=CCC1` [CPO, Cyclopentenone, reference compound], for which, in series [1] (500 μM CPO in the presence of TGF-β, % of those obtained in column 11 (TGF-β only)), the “firefly and renilla luciferase activities (toxicity control)” value was “around 50%”.
`Cc1ccc(Nc2cc(-c3c[nH]nc3-c3ccccn3)ccn2)cc1C` [Example 20, (3,4-Dimethyl-phenyl)-[4-(3-pyridin-2-yl-1H-pyrazol-4-yl)-pyridin-2-yl]-amine] showed a melting point of 220 °C. Besides, the IC50 in series [1] was not above 5 µM.
For `FC(F)(F)c1ccc(Nc2cc(-c3c[nH]nc3-c3ccccn3)ccn2)cc1` [Example 21, [4-(3-Pyridin-2-yl-1H-pyrazol-4-yl)-pyridin-2-yl]-(4-trifluoromethyl-phenyl)-amine] the same measures were 207 °C and not above 5 µM.
For `CN1CCN(C(=O)c2ccc(Nc3cc(-c4c[nH]nc4-c4ccccn4)ccn3)cc2)CC1` [Example 26, (4-Methyl-piperazin-1-yl)-{4-[4-(3-pyridin-2-yl-1H-pyrazol-4-yl)-pyridin-2-ylamino]-phenyl}-methanone] the same measures were 200 °C and not above 5 µM.
`Cn1ccnc1COc1cccc(Nc2cc(-c3c[nH]nc3-c3ccccn3)ccn2)c1` [Example 28, [3-(1-Methyl-1H-imidazol-2-ylmethoxy)-phenyl]-[4-(3-pyridin-2-yl-1H-pyrazol-4-yl)-pyridin-2-yl]-amine] gave a melting point of 120 °C. In addition, in series [1], the IC50 was not above 5 µM.
The compound `N#Cc1cccc(Nc2cc(-c3c[nH]nc3-c3ccccn3)ccn2)c1` [Example 6] displayed a melting point of 228 °C. For the same compound, the 50% inhibitory concentration (IC50) in series [1] was not above 5 µM.
On the same counts, the results for `O=C(c1ccc(Nc2cc(-c3c[nH]nc3-c3ccccn3)ccn2)cc1)N1CCOCC1` [Example 25, Morpholin-4-yl-{4-[4-(3-pyridin-2-yl-1H-pyrazol-4-yl)-pyridin-2-ylamino]-phenyl}methanone] are 240 °C and not above 5 µM.
Turning to `Cc1cccc(Nc2cc(-c3c[nH]nc3-c3ccccn3)ccn2)c1` [Example 11, [4-(3-Pyridin-2-yl-1H-pyrazol-4-yl)-pyridin-2-yl]-m-tolyl-amine], the melting point was found to be 194 °C. Also, the IC50 in series [1] was not above 5 µM.
`FC(F)(F)Oc1cccc(Nc2cc(-c3c[nH]nc3-c3ccccn3)ccn2)c1` [Example 19, [4-(3-Pyridin-2-yl-1H-pyrazol-4-yl)-pyridin-2-yl]-(3-trifluoromethoxy-phenyl)-amine] returned a melting point of 102.8 °C. In addition, the IC50 in series [1] was not above 5 µM.
With `c1ccc(-c2n[nH]cc2-c2ccnc(Nc3ccc(OCCN4CCCCC4)cc3)c2)nc1` [Example 27, [4-(2-Piperidin-1-yl-ethoxy)phenyl]-[4-(3-pyridin-2-yl-1H-pyrazol-4-yl)-pyridin-2-yl]-amine], the melting point is 176 °C. Moreover, the IC50 in series [1] was not above 5 µM.
The compound `c1ccc(-c2n[nH]cc2-c2ccnc(Nc3ccc(OCCN4CCCC4)cc3)c2)nc1` [Example 12, [4-(3-Pyridin-2-yl-1H-pyrazol-4-yl)-pyridin-2-yl]-[4-(2-pyrrolidin-1-yl-ethoxy)-phenyl]-amine] came in with a melting point of 224 °C. In addition, in series [1], the IC50 was not above 5 µM.
Turning to `CS(=O)(=O)c1ccc(Nc2cc(-c3c[nH]nc3-c3ccccn3)ccn2)cc1` [Example 23, (4-Methanesulfonyl-phenyl)-[4-(3-pyridin-2-yl-1H-pyrazol-4-yl)-pyridin-2-yl]-amine], the melting point was determined as 134 °C. Besides, in series [1], the IC50 is not above 5 µM.
As to `COc1ccc(Nc2cc(-c3c[nH]nc3-c3ccccn3)ccn2)cc1OC` [Example 13, (3,4-Dimethoxy-phenyl)-[4-(3-pyridin-2-yl-1H-pyrazol-4-yl)-pyridin-2-yl]-amine], the melting point worked out at 210 °C. Besides, in series [1], the IC50 was not above 5 µM.
`CS(=O)(=O)c1cccc(Nc2cc(-c3c[nH]nc3-c3ccccn3)ccn2)c1` [Example 5] returned a melting point of 146 °C. For the same compound, in series [1], the IC50 is not above 5 µM.
`c1ccc(-c2n[nH]cc2-c2ccnc(Nc3cccc(OCCN4CCCCC4)c3)c2)nc1` [Example 8] returned a melting point of 115 °C. For the same compound, the IC50 in series [1] is not above 5 µM.
`COc1cc(Nc2cc(-c3c[nH]nc3-c3cccc(C)n3)ccn2)ccc1C#N` [Example 24, 2-Methoxy-4-{4-[3-(6-methyl-pyridin-2-yl)-1H-pyrazol-4-yl]-pyridin-2-ylamino}-benzonitrile] came in with a melting point of 125 °C. Besides, in series [1], the IC50 is not above 5 µM.
`COc1cc(Nc2cc(-c3c[nH]nc3-c3ccccn3)ccn2)ccc1C#N` [Example 7] registered a melting point of 280 °C. In series [1], the IC50 is not above 5 µM.
